Source: patent US10758534B2 (Vertex Pharmaceuticals Incorporated, priority 2014, dated 2020)

Target: T1, F508del (Homo sapiens, UniProt P13569, DEL508-508)
T1 construct: expressed in transfected cells
Test: Protocol 1: membrane potential optical assay (FLIPR III, voltage sensing dye), identification of potentiator compounds
Assay type: cell-based
Conditions: Table 3, compounds of Table 1
How it was run: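 Membrane potential in forskolin-activated, temperature-rescued F508del NIH 3T3 cells is followed with a voltage-sensing dye on FLIPR III. A chloride ion gradient created at the single addition step provides the driving force, after prior compound treatment.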

T1 sequence (P13569 with tags, fused parts or gaps DEL508-508): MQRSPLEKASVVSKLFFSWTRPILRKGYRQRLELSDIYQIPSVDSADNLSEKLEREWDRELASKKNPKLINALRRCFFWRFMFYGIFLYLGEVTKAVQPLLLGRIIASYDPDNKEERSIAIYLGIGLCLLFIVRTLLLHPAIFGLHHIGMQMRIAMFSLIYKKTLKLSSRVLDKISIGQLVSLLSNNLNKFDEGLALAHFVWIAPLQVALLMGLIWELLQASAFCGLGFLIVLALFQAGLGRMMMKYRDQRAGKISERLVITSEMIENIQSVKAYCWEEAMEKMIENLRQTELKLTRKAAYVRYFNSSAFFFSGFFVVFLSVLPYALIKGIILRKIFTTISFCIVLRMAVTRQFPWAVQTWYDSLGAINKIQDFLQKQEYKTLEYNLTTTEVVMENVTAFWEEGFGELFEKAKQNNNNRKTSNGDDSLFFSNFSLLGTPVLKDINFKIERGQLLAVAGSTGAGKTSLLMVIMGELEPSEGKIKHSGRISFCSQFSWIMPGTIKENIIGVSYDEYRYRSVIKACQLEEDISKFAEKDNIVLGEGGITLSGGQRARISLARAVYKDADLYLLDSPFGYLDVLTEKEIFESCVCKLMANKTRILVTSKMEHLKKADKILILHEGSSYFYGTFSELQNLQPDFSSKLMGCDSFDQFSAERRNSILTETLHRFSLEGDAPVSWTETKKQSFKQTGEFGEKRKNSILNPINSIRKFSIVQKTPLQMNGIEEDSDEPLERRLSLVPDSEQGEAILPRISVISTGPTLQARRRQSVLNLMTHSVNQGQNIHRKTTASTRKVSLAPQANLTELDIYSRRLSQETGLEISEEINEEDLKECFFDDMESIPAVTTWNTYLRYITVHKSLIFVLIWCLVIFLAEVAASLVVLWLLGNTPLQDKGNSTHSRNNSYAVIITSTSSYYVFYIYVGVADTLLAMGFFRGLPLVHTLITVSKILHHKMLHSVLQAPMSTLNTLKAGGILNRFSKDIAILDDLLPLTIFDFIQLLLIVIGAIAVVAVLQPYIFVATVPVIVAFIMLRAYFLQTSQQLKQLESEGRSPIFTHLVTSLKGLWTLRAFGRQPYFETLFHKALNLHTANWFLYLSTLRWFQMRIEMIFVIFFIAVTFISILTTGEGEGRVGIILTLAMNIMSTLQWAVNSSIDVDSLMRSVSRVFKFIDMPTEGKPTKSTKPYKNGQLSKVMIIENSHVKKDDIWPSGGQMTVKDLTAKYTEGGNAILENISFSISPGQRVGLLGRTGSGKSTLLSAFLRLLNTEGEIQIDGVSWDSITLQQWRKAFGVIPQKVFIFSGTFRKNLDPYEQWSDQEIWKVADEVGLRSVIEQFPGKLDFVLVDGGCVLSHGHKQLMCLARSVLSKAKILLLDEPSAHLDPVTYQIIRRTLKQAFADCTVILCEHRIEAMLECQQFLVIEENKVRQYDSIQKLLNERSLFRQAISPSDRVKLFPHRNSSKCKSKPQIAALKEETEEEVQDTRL

| SMILES | EC30 |
| --- | --- |
| Cc1ccc(-c2nc3c(cc2C(=O)NS(=O)(=O)c2ccn[nH]2)CCCC3(C)C)cc1 [Compound 1292, 8,8-dimethyl-2-(p-tolyl)-N-(1H-pyrazol-5-ylsulfonyl)-6,7-dihydro-5H-quinoline-3-carboxamide] | + (“+” means greater than 10 uM) |
| Cc1cccc(C)c1Cn1c(C(=O)NS(=O)(=O)c2ccccc2)cc2cccnc21 [Compound 1291, N-(benzenesulfonyl)-1-[(2,6-dimethylphenyl)methyl]pyrrolo[2,3-b]pyridine-2-carboxamide] | ++ (“++” means between 3 uM and 10 uM) |
| CC(C)COc1cc(F)cc(-c2ccc(C(=O)NS(=O)(=O)c3cccc(N)n3)c(C3=CC(C)(C)OC3(C)C)n2)c1 [Compound 1531, N-[(6-amino-2-pyridyl)sulfonyl]-6-(3-fluoro-5-isobutoxy-phenyl)-2-(2,2,5,5-tetramethyl-3-furyl)pyridine-3-carboxamide] | ++ (“++” means between 3 uM and 10 uM) |
| CC(C)Oc1ccc(-c2ccc(C(=O)NS(=O)(=O)c3cccc(N)n3)c(N3CCC(F)CC3)n2)cn1 [Compound 913, N-[(6-amino-2-pyridyl)sulfonyl]-2-(4-fluoro-1-piperidyl)-6-(6-isopropoxy-3-pyridyl)pyridine-3-carboxamide] | ++ (“++” means between 3 uM and 10 uM) |
| CCOc1cccc2c1CN(Cc1c(C)cc(C)cc1C)[C@]2(C)C(=O)NS(=O)(=O)c1cccc(N)n1 [Compound 1372, (1S)—N-[(6-amino-2-pyridyl)sulfonyl]-4-ethoxy-1-methyl-2-[(2,4,6-trimethylphenyl)methyl]isoindoline-1-carboxamide] | +++ (“+++” means <3 uM) |
| CC1(C)CN(c2nc(C(F)(F)F)ccc2C(=O)NS(=O)(=O)c2cccc(N)n2)C(C)(C)C1 [Compound 1635, N-[(6-amino-2-pyridyl)sulfonyl]-2-(2,2,4,4-tetramethylpyrrolidin-1-yl)-6-(trifluoromethyl)pyridine-3-carboxamide] | +++ (“+++” means <3 uM) |
| C[C@@H]1CN(c2nc(-c3cc(F)c(F)cc3F)ccc2C(=O)NS(=O)(=O)c2ccc[nH]c2=O)C(C)(C)C1 [Compound 1981, N-[(2-oxo-1H-pyridin-3-yl)sulfonyl]-6-(2,4,5-trifluorophenyl)-2-[(4S)-2,2,4-trimethylpyrrolidin-1-yl]pyridine-3-carboxamide] | +++ (“+++” means <3 uM) |
| CC(C)COc1cc(-c2ccc(C(=O)NS(=O)(=O)c3ccc[nH]c3=O)c(N3CCC(C)CC3)n2)ccc1Cl [Compound 941, 6-(4-chloro-3-isobutoxy-phenyl)-2-(4-methyl-1-piperidyl)-N-[(2-oxo-1H-pyridin-3-yl)sulfonyl]pyridine-3-carboxamide] | +++ (“+++” means <3 uM) |

The next lines start with the values.

| EC30 | SMILES |
| --- | --- |
| +++ (“+++” means <3 uM) | CCOC(=O)C1CC=C(c2ccc(C(=O)NS(=O)(=O)c3cccc(N)n3)c(Oc3c(C)cc(C)cc3C)n2)CC1 (stereo not drawn) [Compound 1432, ethyl 4-[5-[(6-amino-2-pyridyl)sulfonylcarbamoyl]-6-(2,4,6-trimethylphenoxy)-2-pyridyl]cyclohex-3-ene-1-carboxylate] |
| +++ (“+++” means <3 uM) | Cc1cc(C)c(Oc2nc(C(C)(C)C)ccc2C(=O)NS(=O)(=O)c2cccc(NCCO)n2)c(C)c1 [Compound 916, 6-tert-butyl-N-[[6-(2-hydroxyethylamino)-2-pyridyl]sulfonyl]-2-(2,4,6-trimethylphenoxy)pyridine-3-carboxamide] |
| +++ (“+++” means <3 uM) | Cc1cc(C)c(Oc2nc(C(C)(C)C)ccc2C(=O)N=S(N)(=O)c2cccc(N)n2)c(C)c1 (stereo not drawn) [Compound 1602, N-[amino-(6-amino-2-pyridyl)-oxo-$1^6-sulfanylidene]-6-tert-butyl-2-(2,4,6-trimethylphenoxy)pyridine-3-carboxamide] |
| +++ (“+++” means <3 uM) | COc1ccc(C#N)cc1-c1ccc(C(=O)NS(=O)(=O)c2cccc(N)n2)c(Oc2c(C)cc(C)cc2C)n1 [Compound 1111, N-[(6-amino-2-pyridyl)sulfonyl]-6-(5-cyano-2-methoxy-phenyl)-2-(2,4,6-trimethylphenoxy)pyridine-3-carboxamide] |
